Data on 25 molecules can be found in patent publication US5527815A, “Carboxymethylidenecycloheptimidazole derivatives, method of manufacturing the same and therapeutic agents containing these compounds” (Kotobuki Seiyaku Co., Ltd., priority 1993, dated 1996).

One assay deals with T1, Angiotensin II receptor (Oryctolagus cuniculus, UniProt P34976).
T1 construct: Rabbit thoracic aorta is isolated, contracted by angiotensin II; from tissue; host or cells: rabbit thoracic aorta
T1 sequence (P34976 1-359): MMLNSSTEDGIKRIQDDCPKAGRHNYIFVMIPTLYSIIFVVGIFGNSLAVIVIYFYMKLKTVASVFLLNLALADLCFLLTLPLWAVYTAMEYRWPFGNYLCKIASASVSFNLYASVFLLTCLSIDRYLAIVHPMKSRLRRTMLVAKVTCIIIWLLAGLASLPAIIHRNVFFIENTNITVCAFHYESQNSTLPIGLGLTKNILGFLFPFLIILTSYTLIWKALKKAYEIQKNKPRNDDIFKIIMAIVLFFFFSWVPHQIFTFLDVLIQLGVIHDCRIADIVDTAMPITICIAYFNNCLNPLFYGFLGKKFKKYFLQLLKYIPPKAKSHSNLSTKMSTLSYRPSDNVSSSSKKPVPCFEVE
The assay can be described thus: AII receptor antagonistic activity: inhibition of angiotensin II induced contraction of isolated rabbit thoracic aorta. In kind it is cell-based. Conditions: isolated rabbit thoracic aorta contracted by angiotensin II; for Kb: from dose-response curve (Schild), read-out: pA2 (converted); for pD2': Van Rossum method, values shown in parenthesis. Here is the method: [AII receptor antagonistic activity]
Angiotensin II receptor activity experiments are carried out according to P. C. Wong et al. (Hypertension 15, 823 (1990)).
Rabbit thoracic aorta is isolated, contracted by angiotensin II. The inhibition of contraction by the compound of formula (1) is expressed as pA2 from dose-response curve (Schild, Brit. J. Pharmacol. 14, 48 (1959)) or expressed as pD2 ' according to the method of J. M. Van Rossum (Arch. Intern. Pharmacodyn., 143, 229 (1963)).

The next assay deals with pressor responses to AII. Kind of assay: Inhibition of AII induced blood pressure increase in rats. Format: in vivo. As to conditions: Rattus norvegicus, po, test compound 0.3 mg/kg orally, AII 30 ng/kg i.v., pressor responses measured at set times. The method, then:
[Inhibition of All induced Blood Pressure Increase]
Carotid artery and left femoral vein in rats were cannulated. Next day, the carotid catheter was connected to a pressure transducer for monitoring arterial blood pressure. After the measurement of AII (30 ng/kg, i.v.) pressor responses, test compounds (0.3 mg/kg) were administered orally.
Thereafter, the pressor responses to AII at set times were measured and the inhibition percent was calculated according to the comparison of the pressor responses.

For `CCOC(=O)/C=C1\CCCCc2nc(C)n(Cc3ccc(-c4ccccc4-c4nnn[nH]4)cc3)c21` [Compound 2, 2-Methyl-8-ethoxycarbonylmethylidene-1-[(2'-(1H-tetrazole-5-yl)biphenyl-4-yl)methyl]-4,5,6,7-tetrahydro-cycloheptimidazole], the Kb at Angiotensin II receptor is 36.3 nM.
With `CCOC(=O)/C=C1\CCCCc2nc(CC)n(Cc3ccc(-c4ccccc4-c4nnn[nH]4)cc3)c21` [Compound 3, 2-Ethyl-8-ethoxycarbonylmethylidene-1-[(2'-(1H-tetrazole-5-yl)biphenyl-4-yl)methyl]-4,5,6,7-tetrahydro-cycloheptimidazole], the “pD2'” value on Angiotensin II receptor is 9.00.
As for `CCCc1nc2c(n1Cc1ccc(-c3ccccc3-c3nnn[nH]3)cc1)/C(=C/C(=O)OCC)CCCC2` [Compound 4, 2-Propyl-8-ethoxycarbonylmethylidene-1-[(2'-(1H-tetrazole-5-yl)biphenyl-4-yl)methyl]-4,5,6,7-tetrahydro-cycloheptimidazole], the “pD2'” value on Angiotensin II receptor came out at 8.40. In addition, the inhibition in vivo (commonly the change of the read-out against control, counted positive when it falls) at 0.3 mg/kg in the assay with pressor responses to AII lay in the range of 50 to 70%.
`CCOC(=O)/C=C1\CC(C(C)C)CCc2nc(CC)n(Cc3ccc(-c4ccccc4-c4nnn[nH]4)cc3)c21` (stereo not shown) [Compound 7, 2-Ethyl-6-isopropyl-8-ethoxycarbonylmethylidene-1-[(2'-(1H-tetrazole-5yl)biphenyl-4-yl)methyl]-4,5,6,7-tetrahydro-cycloheptimidazole] yielded an inhibition in vivo at 0.3 mg/kg in the assay with pressor responses to AII of at least 70%.
Turning to `CCCc1nc2c(n1Cc1ccc(-c3ccccc3-c3nn[nH]n3)cc1)CCCC/C2=C\C(=O)O` [Compound 14, 2-Propyl-4-carboxymethylidene-1-[(2'-(1H-tetrazole-5-yl)biphenyl-4-yl)methyl]-5,6,7,8-tetrahydro-cycloheptimidazole], the Kb at Angiotensin II receptor was 0.158 nM.
Consider `Cc1nc2c(n1Cc1ccc(-c3ccccc3-c3nnn[nH]3)cc1)/C(=C/C(=O)O)CCCC2` [Compound 15, 2-Methyl-8-carboxymethylidene-1-[(2'-(1H-tetrazole-5-yl)biphenyl-4-yl)methyl]-4,5,6,7-tetrahydro-cycloheptimidazole], for which, at Angiotensin II receptor, the “pD2'” value stood at 9.91.
As for `CCc1nc2c(n1Cc1ccc(-c3ccccc3-c3nnn[nH]3)cc1)/C(=C/C(=O)O)CCCC2` [Compound 16, 2-Ethyl-8-carboxymethylidene-1-[(2'-(1H-tetrazole-5-yl)biphenyl-4-yl)methyl]-4,5,6,7-tetrahydro-cycloheptimidazole], the “pD2'” value at Angiotensin II receptor turned out to be 9.91. The inhibition in vivo at 0.3 mg/kg with pressor responses to AII is at least 70%.
The like results for `CCCc1nc2c(n1Cc1ccc(-c3ccccc3-c3nnn[nH]3)cc1)/C(=C/C(=O)O)CCCC2` [Compound 17, 2-Propyl-8-carboxymethylidene-1-[(2'-(1H-tetrazole-5-yl)biphenyl-4-yl)methyl]-4,5,6,7-tetrahydro-cycloheptimidazole] were, in that order, 9.86 and 50 to 70%.
As to `CCCCc1nc2c(n1Cc1ccc(-c3ccccc3-c3nnn[nH]3)cc1)/C(=C/C(=O)O)CCCC2` [Compound 18, 2-Butyl-8-carboxymethylidene-1-[(2'-(1H-tetrazole-5-yl)biphenyl-4-yl)methyl]-4,5,6,7-tetrahydro-cycloheptimidazole], at Angiotensin II receptor, the “pD2'” value was determined as 9.03.
In the case of `CCCCCc1nc2c(n1Cc1ccc(-c3ccccc3-c3nn[nH]n3)cc1)/C(=C/C(=O)O)CCCC2` [Compound 19, 2-Pentyl-8-carboxymethylidene-1-[(2'-(1H-tetrazole-5-yl)biphenyl-4-yl)methyl]-4,5,6,7-tetrahydro-cycloheptimidazole], the Kb at Angiotensin II receptor was 1.51 nM.
Regarding `CCc1nc2c(n1Cc1ccc(-c3ccccc3-c3nnn[nH]3)cc1)/C(=C/C(=O)O)CC(C(C)C)CC2` (stereo not shown) [Compound 20, 2-Ethyl-6-isopropyl-8-carboxymethylidene-1-[(2'-(1H-tetrazole-5-yl)biphenyl-4-yl)methyl]-4,5,6,7-tetrahydro-cycloheptimidazole], on Angiotensin II receptor, the “pD2'” value is 9.04.
Take `CCCc1nc2c(n1Cc1ccc(-c3ccccc3-c3nnn[nH]3)cc1)/C(=C/C(=O)O)CC(C(C)C)CC2` (stereo not shown) [Compound 21, 2-Propyl-6-isopropyl-8-carboxymethylidene-1-[(2'-(1H-tetrazole-5-yl)biphenyl-4-yl)methyl]-4,5,6,7-tetrahydro-cycloheptimidazole]: the “pD2'” value on Angiotensin II receptor is given as 9.08.
As for `Cc1nc2c(n1Cc1ccc(-n3cccc3-c3nn[nH]n3)cc1)/C(=C/C(=O)O)CCCC2` [Compound 22, 2-Methyl-8-carboxymethylidene-1-[4-(1H-pyrrole-2-(1H-tetrazole-5-yl)phenyl)methyl]-4,5,6,7-tetrahydro-cycloheptimidazole], the Kb on Angiotensin II receptor is 1.26 nM.
`CCc1nc2c(n1Cc1ccc(-n3cccc3-c3nnn[nH]3)cc1)/C(=C/C(=O)O)CCCC2` [Compound 23, 2-Ethyl-8-carboxymethylidene-1-[4-(1H-pyrrole-2-(1H-tetrazole-5-yl)phenyl)methyl]-4,5,6,7-tetrahydro-cycloheptimidazole]: the “pD2'” value on Angiotensin II receptor was found to be 9.60.
For the molecule `CCCc1nc2c(n1Cc1ccc(-n3cccc3-c3nn[nH]n3)cc1)/C(=C/C(=O)O)CCCC2` [Compound 24, 2-Propyl-8-carboxymethylidene-1-[4-(1H-pyrrole-2-(1H-tetrazole-5-yl)phenyl)methyl]-4,5,6,7-tetrahydro-cycloheptimidazole], on Angiotensin II receptor, the Kb was 0.158 nM.
Take `CCCCc1nc2c(n1Cc1ccc(-c3ccccc3-c3nnn[nH]3)cc1)/C(=C/C(=O)O)CC(C(C)C)CC2` (stereo not shown) [Compound 25, 2-Butyl-6-isopropyl-8-carboxymethylidene-1-[(2'-(1H-tetrazole-5-yl)biphenyl-4-yl)methyl]-4,5,6,7-tetrahydro-cycloheptimidazole]: on Angiotensin II receptor, the “pD2'” value worked out at 8.88.
As to `CCCCc1nc2c(n1Cc1ccc(-n3cccc3-c3nn[nH]n3)cc1)/C(=C/C(=O)O)CCCC2` [Compound 26, 2-Butyl-8-carboxymethylidene-1-[4-(1H-pyrrole-2-(1H-tetrazole-5-yl)phenyl)methyl]-4,5,6,7-tetrahydro-cycloheptimidazole], the Kb on Angiotensin II receptor is 0.501 nM.
As for `CCCc1nc2c(n1Cc1ccc(-c3ccccc3-c3nnn[nH]3)cc1)/C(=C/C(=O)OC(C)OC(=O)OCC)CCCC2` (stereo not shown) [Compound 27, 2-Propyl-8-(1-ethoxycarbonyloxy)ethoxycarbonylmethylidene-1-[(2'-(1H-tetrazole-5-yl)biphenyl-4-yl)methyl]-4,5,6,7-tetrahydro-cycloheptimidazole], the “pD2'” value on Angiotensin II receptor is on record as 8.45.
In turn, `CCCc1nc2c(n1Cc1ccc(-c3ccccc3-c3nnn[nH]3)cc1)/C(=C/C(=O)OC(C)OC(=O)OC1CCCCC1)CCCC2` (stereo not shown) [Compound 28] had an inhibition in vivo at 0.3 mg/kg in the assay with pressor responses to AII of at least 70%.
As for `CCc1nc2c(n1Cc1ccc(-c3ccccc3-c3nnn[nH]3)cc1)/C(=C/C(=O)OC(C)OC(=O)OC(C)C)CCCC2` (stereo not shown) [Compound 30, 2-Ethyl-8-(1-isopropoxycarbonyloxy)ethoxycarbonylmethylidene-1-[(2'-(1H-tetrazole-5-yl)biphenyl-4-yl)methyl]-4,5,6,7-tetrahydro-cycloheptimidazole], the “pD2'” value at Angiotensin II receptor came out at 8.11.
`CCc1nc2c(n1Cc1ccc(-c3ccccc3-c3nnn[nH]3)cc1)/C(=C/C(=O)OC(C)OC(=O)OC(C)C)CC(C(C)C)CC2` (stereo not shown) [Compound 31, 2-Ethyl-6-isopropyl-8-(1-isopropoxycarbonyloxy)ethoxycarbonylmethylidene-1-[(2'-(1H-tetrazole-5-yl)biphenyl-4-yl)methyl]-4,5,6,7-tetrahydro cycloheptimidazole] displayed an inhibition in vivo at 0.3 mg/kg in the assay with pressor responses to AII of at least 70%.
For the molecule `CCc1nc2c(n1Cc1ccc(-n3cccc3-c3nnn[nH]3)cc1)/C(=C/C(=O)OC(C)OC(=O)OC(C)C)CCCC2` (stereo not shown) [Compound 32, 2-Ethyl-8-(1-isopropoxycarbonyloxy)ethoxycarbonylmethylidene-[4-(1H-pyrrole-2-(1H-tetrazole-5-yl)phenyl)methyl]-4,5,6,7-tetrahydro-cycloheptimidazole], the “pD2'” value on Angiotensin II receptor was found to be 9.38.
In turn, `CCCc1nc2c(n1Cc1ccc(-c3ccccc3-c3nnn[nH]3)cc1)/C(=C/C(=O)OC(C)OC(=O)OC(C)C)CC(C(C)C)CC2` (stereo not shown) [Compound 33, 2-Propyl-6-isopropyl-8-(1-isopropoxycarbonyloxy)ethoxycarbonylmethylidene-1-[(2'-(1H-tetrazole-5-yl)biphenyl-4-yl)methyl]-4,5,6,7-tetrahydro-cycloheptimidazole] yielded an inhibition in vivo at 0.3 mg/kg in the assay with pressor responses to AII of at least 70%.
As for `CCc1nc2c(n1Cc1ccc(-c3ccccc3-c3nnn[nH]3)cc1)/C(=C/C(=O)OC(C)OC(=O)OC1CCCCC1)CCCC2` (stereo not shown) [Compound 35], at Angiotensin II receptor, the “pD2'” value is listed as 8.12.
For `CCOC(=O)OC(C)OC(=O)/C=C1\CCCCc2nc(CC)n(Cc3ccc(-c4ccccc4-c4nnn[nH]4)cc3)c21` (stereo not shown) [Compound 36, 2-Ethyl-8-(1-ethoxycarbonyloxy)ethoxycarbonylmethylidene-1-[(2'-(1H -tetrazole-5-yl)biphenyl-4yl)methyl]-4,5,6,7-tetrahydro-cycloheptimidazole], the “pD2'” value at Angiotensin II receptor turned out to be 8.59.
